Tests used:
Type in all cases: cell-based
[1] = test system: CDA_AAVS1 pancreatic progenitors; assay: Ki67 staining by flow cytometry of pancreatic progenitor cells untreated or treated with 5-FC; settings: 100 μM 5-FC
Experimental: (§1) In order to test whether the CDA-induced killing was specific to proliferative cells, pancreatic progenitor cells, untreated or treated with 100 μM of 5-FC, were stained for proliferation marker Ki67 and analyzed by flow cytometry.

[2] = test system: CDA_CDK1 pancreatic progenitors; assay: as above; settings: CDA_CDK1 pancreatic progenitor culture; 100 μM 5-FC
Experimental: as §1

[3] = test system: CDA_AURKB pancreatic progenitors; assay: as above; settings: 100 μM 5-FC
Experimental: as §1

[4] = test system: CDA_AAVS1 iPSCs and pancreatic progenitors; assay: Cell viability after 5-FC (CDA kill switch) in directed differentiation; settings: 100 μM 5-FC
Experimental: (§2) To validate iCaspase 9 and cytosine deaminase (CDA) kill switch function in vitro, undifferentiated iPSCs and differentiated pancreatic progenitors with either iC9 or CDA knocked into the AURKB or CDK1 loci were tested for selective killing of pluripotent and proliferative cells in a directed differentiation into beta islet cells.
(§3) The kill switch function of CDA, which is inherently specific to proliferative cells, at the AURKB and CDK1 loci was tested in pancreatic progenitor cells generated by directed differentiation from CDA_AURKB iPSCs or CDA_CDK1 iPSCs. […] The partial loss-of-function was similarly observed in the control cell lines with CDA knocked into the AAVS1 locus.

[5] = test system: CDA_CDK1 iPSCs and pancreatic progenitors; assay: as above
Experimental: as §2, §3

[6] = test system: CDA_AURKB iPSCs and pancreatic progenitors; assay: as above
Experimental: as §2, §3

[7] = test system: control iPSC (dko) and day 12 pancreatic progenitor cells; assay: as above; settings: increasing concentrations of 5-FC
Experimental: as §2, §3

Q: For `Nc1nc(=O)[nH]cc1F` [5-FC, 5-fluorocytosine], which “clearance of Ki-67 expressing cells” value [1] is on record?
A: clearance of most of the proliferative cells

Q: What about the “clearance of Ki-67 expressing cells” value [2] of the same molecule?
A: clearance of most of the proliferative cells

Q: What about the “clearance of Ki-67 expressing cells” value [3] of the same molecule?
A: a large subset of Ki-67 expressing cells was cleared

Q: And the cell viability ([4]; CDA_AAVS1 iPSCs)?
A: no viable CDA_AAVS1 iPSCs

Q: What about the viability at 100 µM ([4]; iPSC, read-out: cells remained viable, CDA_AAVS1 pancreatic progenitors) of the same molecule?
A: 50%

Q: And the cell viability ([5]; CDA_CDK1 iPSCs, 100 μM 5-FC)?
A: complete cell death

Q: What about the cell killing ([5]; CDA_CDK1 pancreatic progenitors, day 12 of differentiation) of the same molecule?
A: partially lost CDA function

Q: And the cell killing ([6]; CDA-AURKB pancreatic progenitors, day 12 of differentiation)?
A: partial loss of CDA function

Q: And the “5-FC concentration at which viability began to decrease” value ([6]; CDA_AURKB iPSCs)?
A: about 5 μM

Q: And the cell viability ([6]; CDA_AURKB iPSCs, about 100 μM 5-FC)?
A: complete cell death

Q: And the cell viability [7]?
A: maintained viability

— patent US20250230470A1, “SAFETY SWITCHES TO CONTROL IN VITRO AND IN VIVO PROLIFERATION OF CELL THERAPY PRODUCTS” (Sana Biotechnology, Inc., priority 2024, published 2025)
